Some test systems named below: COLO 205 colon; OVCAR-4 ovarian; SW-620 colon; MOLT-4 leukemia; NCI-H460 lung; SNB-19 CNS; HCC-2998 colon; UACC-62 melanoma.
What all share (test): NCI-60 cell line screen, 48 h

Several values for one entry are separate records, joined by “and”; a condition that tells them apart may be missing. Equal values may be shown once.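 Method: 48-hour compound exposure of cells in 96-well plates, five concentrations, linear interpolation of endpoints. Here, GI50 denotes the concentration required for 50% inhibition of growth. TGI: total growth inhibition.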 Where a SMILES comes first, the peptide text is derived from it. [ ]: non-standard residue; d: D form. The star is where a group is joined. ξ: configuration not given here. X6 = FC(F)(F)c1cc(NC(=S)*)cc(C(F)(F)F)c1; ξF = NC(Cc1ccccc1)C(=O)O Where only a bound is given, the exact number is not on record here.

As to `COc1ccc2c(c1)/C(=C/c1c(C)nc3sc(C)nn13)C(=O)N2`, the GI50 with COLO 205 colon is 0.614 µM; in the experiment with OVCAR-4 ovarian, 14.7 µM; in the experiment on SW-620 colon, 0.695 µM; with MOLT-4 leukemia, 2.64 µM; in the experiment with NCI-H460 lung it was 1.09 µM; with SNB-19 CNS it was 1.94 µM. The GI50 was 0.632 µM in the experiment with HCC-2998 colon and 6.24 µM in the experiment with UACC-62 melanoma. Besides, the TGI in the experiment with COLO 205 colon is 4.96 µM; in the experiment on OVCAR-4 ovarian, above 100 µM; in the experiment on SW-620 colon, above 100 µM; in the experiment with MOLT-4 leukemia it was above 100 µM; in the experiment on NCI-H460 lung it was above 32.6 µM; in the experiment with SNB-19 CNS, above 37 µM. Also, the TGI in the experiment with HCC-2998 colon is 7.86 µM; with UACC-62 melanoma, above 100 µM.
With `O=C(/C=C/C12c3ccccc3C(c3ccccc31)C1C(=O)NC(=O)C12)c1ccncc1` (stereo not drawn), the GI50 is 3.57 µM in the experiment on COLO 205 colon; 2.65 µM in the experiment with OVCAR-4 ovarian; 2.47 µM in the experiment on SW-620 colon; 2.57 µM with MOLT-4 leukemia; 2.16 µM with NCI-H460 lung; 2.33 µM in the experiment on SNB-19 CNS. For the same compound, the GI50 in the experiment with HCC-2998 colon and with UACC-62 melanoma was 1.87 µM in each case. In addition, the TGI in the experiment with COLO 205 colon was found to be 9.43 µM; in the experiment with OVCAR-4 ovarian it was 9.7 µM; in the experiment with SW-620 colon, 7.95 µM; in the experiment on MOLT-4 leukemia, 9.17 µM; with NCI-H460 lung, 4.76 µM; in the experiment on SNB-19 CNS it was 7.46 µM. Moreover, the TGI with HCC-2998 colon amounted to 3.68 µM; with UACC-62 melanoma it was 3.88 µM.
Turning to `Clc1ccc2c(NCCCCNc3nc(N4CCCCC4)nc4ccccc34)ccnc2c1`, the GI50 is 1.64 µM in the experiment on COLO 205 colon; 1.59 µM in the experiment on OVCAR-4 ovarian; 1.59 µM in the experiment on SW-620 colon; 1.98 µM with MOLT-4 leukemia; 2.56 µM with NCI-H460 lung; 3.09 µM in the experiment with SNB-19 CNS. For the same compound, the GI50 with HCC-2998 colon is 1.96 µM; with UACC-62 melanoma it was 1.79 µM. Further, the TGI was determined as 3.59 µM in the experiment on COLO 205 colon; 5.24 µM in the experiment with OVCAR-4 ovarian; 4.78 µM with SW-620 colon; 5.62 µM in the experiment with MOLT-4 leukemia; 9.03 µM in the experiment with NCI-H460 lung; 14.2 µM with SNB-19 CNS. Moreover, the TGI in the experiment with HCC-2998 colon is 4.23 µM; in the experiment with UACC-62 melanoma, 3.48 µM.
Regarding `COC(=O)[C@@H](NC(=O)CNC(=O)[C@H]1CCCN1C(=O)C(Cc1ccccc1)NC(=S)Nc1cc(C(F)(F)F)cc(C(F)(F)F)c1)C(C)C` (stereo partly drawn) (X6-[ξF][dP]GV-OMe), the GI50 is 1.87 µM in the experiment on COLO 205 colon; 3.17 µM in the experiment with OVCAR-4 ovarian; 3.72 µM with SW-620 colon; 2.28 µM with MOLT-4 leukemia; 3.39 µM with NCI-H460 lung; 2.56 µM with SNB-19 CNS. Also, the GI50 was 3.39 µM in the experiment on HCC-2998 colon and 1.79 µM with UACC-62 melanoma. The TGI worked out at 3.32 µM in the experiment with COLO 205 colon; 17.6 µM with OVCAR-4 ovarian; 24.5 µM in the experiment with SW-620 colon; 6.07 µM in the experiment with MOLT-4 leukemia; 12 µM with NCI-H460 lung; 9.49 µM in the experiment on SNB-19 CNS. Also, the TGI worked out at 11.9 µM with HCC-2998 colon and 3.98 µM in the experiment with UACC-62 melanoma.
For `COC1=CC(c2ccc[nH]2)=N/C1=C\c1[nH]c(C)c(C(=O)OC(C)C)c1C`, the GI50 in the experiment with COLO 205 colon was 0.0733 µM; with OVCAR-4 ovarian, 0.0531 µM; with SW-620 colon, 0.0336 µM; in the experiment with MOLT-4 leukemia, 0.0346 µM; in the experiment with NCI-H460 lung it was 0.0269 µM; in the experiment with SNB-19 CNS, 0.866 µM. Further, the GI50 was 0.0485 µM in the experiment with HCC-2998 colon and 0.025 µM with UACC-62 melanoma. Besides, the TGI was 1.46 µM with COLO 205 colon; 4.62 µM with OVCAR-4 ovarian; 1.44 µM in the experiment on SW-620 colon; 3.51 µM in the experiment with MOLT-4 leukemia; 1.63 µM with NCI-H460 lung; 34.9 µM with SNB-19 CNS. In addition, the TGI came out at 1.36 µM with HCC-2998 colon and 0.0578 µM in the experiment on UACC-62 melanoma.
`CCOC(=O)[C@]1(OC(C)=O)C[C@H](OC(C)=O)[C@@H](C(F)COP(=O)(OCc2ccccc2)OCc2ccccc2)O1` (stereo partly drawn): the GI50 in the experiment on COLO 205 colon is 19.4 µM and > 100 µM; with OVCAR-4 ovarian it was 18 µM and > 100 µM; in the experiment with SW-620 colon, 20.2 µM and > 100 µM; in the experiment with NCI-H460 lung it was 18.4 µM and > 100 µM; in the experiment on SNB-19 CNS, 32.9 µM and > 100 µM; in the experiment on UACC-62 melanoma it was 16.9 µM and > 100 µM. Besides, the TGI is 36.3 µM and > 100 µM in the experiment on COLO 205 colon; 39 µM and > 100 µM in the experiment on OVCAR-4 ovarian; 42.8 µM and > 100 µM in the experiment with SW-620 colon; above 100 µM with MOLT-4 leukemia; 39.9 µM and > 100 µM in the experiment with NCI-H460 lung; above 100 µM in the experiment with SNB-19 CNS. Also, the TGI in the experiment on HCC-2998 colon was above 100 µM; with UACC-62 melanoma, 33.8 µM and > 100 µM.
In the case of `Cc1ccc2c(=O)cc(-c3ccc(F)cc3)[nH]c2n1`, the TGI with COLO 205 colon was 47.9 µM; in the experiment with OVCAR-4 ovarian it was above 100 µM; in the experiment with SW-620 colon, above 100 µM; in the experiment on MOLT-4 leukemia it was above 100 µM; in the experiment on NCI-H460 lung, above 100 µM; with SNB-19 CNS, above 100 µM. The TGI in the experiment on HCC-2998 colon and in the experiment on UACC-62 melanoma was above 100 µM each time. Also, in the experiment on NCI-H460 lung, the GI50 is 33.6 µM.
For the compound `COC1=CC(=O)c2nc(-c3ccncc3)[nH]c2C1=O`, the GI50 is above 100 µM in the experiment with COLO 205 colon; 45.3 µM with OVCAR-4 ovarian; above 100 µM in the experiment with SW-620 colon; above 100 µM in the experiment on MOLT-4 leukemia; above 100 µM with NCI-H460 lung; above 100 µM in the experiment on SNB-19 CNS. Moreover, the GI50 with HCC-2998 colon and in the experiment on UACC-62 melanoma was above 100 µM throughout. Further, the TGI in the experiment with COLO 205 colon, in the experiment on OVCAR-4 ovarian, with SW-620 colon, in the experiment with MOLT-4 leukemia, in the experiment on NCI-H460 lung and with SNB-19 CNS was above 100 µM in each case. The TGI in the experiment with HCC-2998 colon and in the experiment with UACC-62 melanoma was above 100 µM in each case.
In the case of `OCc1ccc(N2CCC2c2ccc(F)cc2)cc1Cl` (stereo not drawn), the GI50 in the experiment on COLO 205 colon is 3.44 µM; in the experiment with OVCAR-4 ovarian, 0.925 µM; in the experiment with SW-620 colon it was 4.93 µM; in the experiment with MOLT-4 leukemia, 25 µM; in the experiment on NCI-H460 lung, 0.511 µM; with SNB-19 CNS it was 36.6 µM. Moreover, the GI50 in the experiment on HCC-2998 colon was 17.5 µM; in the experiment on UACC-62 melanoma it was 0.397 µM. Moreover, the TGI was 15.3 µM in the experiment with COLO 205 colon; above 59.3 µM with OVCAR-4 ovarian; above 100 µM in the experiment with SW-620 colon; 64.6 µM in the experiment on MOLT-4 leukemia; 12.4 µM in the experiment on NCI-H460 lung; above 100 µM in the experiment on SNB-19 CNS. The TGI is 46 µM with HCC-2998 colon and 6.95 µM in the experiment with UACC-62 melanoma.
As for `O=C1C=C(Cl)C(=O)C(c2ccc(Cl)cc2)=C1`, the TGI is 31 µM with COLO 205 colon; 51.6 µM with OVCAR-4 ovarian; 89.5 µM in the experiment on SW-620 colon; 22.1 µM in the experiment with MOLT-4 leukemia; above 100 µM in the experiment on NCI-H460 lung; above 100 µM in the experiment with SNB-19 CNS. Besides, the TGI in the experiment with HCC-2998 colon amounted to 34.2 µM; in the experiment on UACC-62 melanoma, 42.4 µM.

Source of the values: PubChem BioAssay (NCI).
